# “And” between values parts separate entries of the source, which are not always exact repeats. Identical values can stand only once. Like-named read-outs stand apart in the source and are kept apart here.
# Tests used:
# SFRP-1 [1] = molecular target: T1, SFRP-1 (Homo sapiens, UniProt Q8N474); experiment: Fluorescence polarization binding assay (competitive displacement of a probe compound from SFRP-1); settings: fluorescence anisotropy, 45 nM SFRP-1, 20 nM probe;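 further: test compound competes with a fluorescent probe held by SFRP-1, seen as a drop in probe anisotropy after incubation in darkness, with anisotropy as function of rising compound dose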
# T1 sequence (Q8N474 32-314): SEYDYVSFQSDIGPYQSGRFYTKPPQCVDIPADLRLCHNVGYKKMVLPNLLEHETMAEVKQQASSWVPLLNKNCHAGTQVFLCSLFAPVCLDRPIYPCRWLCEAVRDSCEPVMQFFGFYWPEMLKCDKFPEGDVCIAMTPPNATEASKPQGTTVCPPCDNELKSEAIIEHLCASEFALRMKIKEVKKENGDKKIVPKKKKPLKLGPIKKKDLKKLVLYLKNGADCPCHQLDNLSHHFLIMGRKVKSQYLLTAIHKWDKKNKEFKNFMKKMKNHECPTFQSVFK
# SFRP-1 [2] = molecular target: T1, SFRP-1; experiment: Cell-based assay for in vitro measurement of SFRP-1/SARP2 antagonist activity (U2OS cells co-transfected with 16x TCF-tk-Luciferase reporter, Wnt and hSFRP-1); settings: U2OS;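 further: U2OS cells co-transfected with a TCF-tk luciferase reporter, a Wnt vector, hSFRP-1 or empty vector and CMV-βgal, luciferase luminescence read in cell lysates alongside βgal activity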
# [3] = read-out: Fold Induction with SFRP-1, Conc 15 μM, with SFRP-1, fold induction over SFRP-1 control, single dose
# [4] = read-out: Fold Induction without SFRP-1, Conc 15 μM, without SFRP-1, single dose
IC50 (SFRP-1 [1]),fold induction at 15 µM (SFRP-1 [2]; [3]),fold induction at 15 µM (SFRP-1 [2]; [4]),SMILES
2.8 µM,2.5,1.2,"CCOC(=O)N1CCC(NS(=O)(=O)c2cc(S(=O)(=O)c3ccccc3)ccc2C)CC1 [Example 425, ethyl 4-({[2-methyl-5-(phenylsulfonyl)phenyl]sulfonyl}amino)piperidine-1-carboxylate]"
1.1 µM,2,0.9,"Cc1ccc(S(=O)(=O)c2ccc3[nH]ccc3c2)cc1S(=O)(=O)NCCc1ccccn1 [Example 427, 5-(1H-indol-5-ylsulfonyl)-2-methyl-N-(2-pyridin-2-ylethyl)benzenesulfonamide]"
2.6 µM,1.7,1,"CC(C)c1ccc(S(=O)(=O)c2ccc(C(C)(C)C)cc2)cc1S(=O)(=O)NCCc1ccccn1 [Example 435, 5-[(4-tert-butylphenyl)sulfonyl]-2-isopropyl-N-(2-pyridin-2-ylethyl)benzenesulfonamide]"
1 µM,2.2,1,"CC(C)c1ccc(S(=O)(=O)c2ccc(C(C)(C)C)cc2)cc1S(=O)(=O)NCCCn1ccnc1 [Example 436, 5-[(4-tert-butylphenyl)sulfonyl]-N-[3-(1H-imidazol-1-yl)propyl]-2-isopropylbenzenesulfonamide]"
5 µM,2.2,1,"CC(C)c1ccc(S(=O)(=O)c2ccc(C(C)(C)C)cc2)cc1S(=O)(=O)NC1CCOCC1 [Example 437, 5-[(4-tert-butylphenyl)sulfonyl]-2-isopropyl-N-(tetrahydro-2H-pyran-4-yl)benzenesulfonamide]"
2 µM,2,0.9,"Cc1ccc(S(=O)(=O)c2ccc(C(C)(C)C)cc2)cc1S(=O)(=O)NCCCn1ccnc1 [Example 439, 5-[(4-tert-butylphenyl)sulfonyl]-N-[3-(1H-imidazol-1-yl)propyl]-2-methylbenzenesulfonamide]"
3 µM,1.8,1.1,"Cc1ccc(S(=O)(=O)c2ccc(C(C)(C)C)cc2)cc1S(=O)(=O)NC1CCOCC1 [Example 440, 5-[(4-tert-butylphenyl)sulfonyl]-2-methyl-N-(tetrahydro-2H-pyran-4-yl)benzenesulfonamide]"
1 µM,3.9,1,"CC(C)c1ccc(S(=O)(=O)c2ccc(F)cc2)cc1S(=O)(=O)NCCc1c[nH]cn1 [Example 442, 5-[(4-fluorophenyl)sulfonyl]-N-[2-(1H-imidazol-4-yl)ethyl]-2-isopropylbenzenesulfonamide]"
0.6 µM,2.5,1.1,"CC(C)c1ccc(S(=O)(=O)c2ccc(F)cc2)cc1S(=O)(=O)NC[C@H](C)c1ccccc1 [Example 443, 5-[(4-fluorophenyl)sulfonyl]-2-isopropyl-N-[(2R)-2-phenylpropyl]benzenesulfonamide]"
1.1 µM,2.9,1.2,"CC(C)c1ccc(S(=O)(=O)c2ccc(F)cc2)cc1S(=O)(=O)NCC1CCOCC1 [Example 445, 5-[(4-fluorophenyl)sulfonyl]-2-isopropyl-N-(tetrahydro-2H-pyran-4-ylmethyl)benzenesulfonamide]"
2 µM,2.3,1.1,"Cc1ccc(S(=O)(=O)c2ccccc2)cc1S(=O)(=O)NC1CCN(C(=O)OC(C)(C)C)CC1 [Example 446, tert-butyl 4-({[2-methyl-5-(phenylsulfonyl)phenyl]sulfonyl}amino)piperidine-1-carboxylate]"
0.12 µM and 0.17 µM,2,1.2,"Cc1ccc(S(=O)(=O)c2ccccc2)cc1S(=O)(=O)NC1CCN(S(=O)(=O)c2ccccc2)CC1 [Example 448, 2-methyl-5-(phenylsulfonyl)-N-[1-(phenylsulfonyl)piperidin-4-yl]benzenesulfonamide]"
3 µM,2.8,1.1,"Cc1ccc(S(=O)(=O)c2ccccc2)cc1S(=O)(=O)NC1CCN(C(=O)c2ccco2)CC1 [Example 449, N-[1-(2-furoyl)piperidin-4-yl]-2-methyl-5-(phenylsulfonyl)benzenesulfonamide]"
0.4 µM and 0.2 µM and 0.3 µM,4,1,"CC(C)c1ccc(S(=O)(=O)c2ccc(NCCC#N)cc2)cc1S(=O)(=O)NCCn1ccnc1 [Example 450, 5-({4-[(2-cyanoethyl)amino]phenyl}sulfonyl)-N-[2-(1H-imidazol-1-yl)ethyl]-2-isopropylbenzenesulfonamide]"
0.2 µM,3.8,1,"CCC(O)CNc1ccc(S(=O)(=O)c2ccc(C(C)C)c(S(=O)(=O)NCCn3ccnc3)c2)cc1 (stereo not drawn) [Example 452, 5-({4-[(2-hydroxybutyl)amino]phenyl}sulfonyl)-N-[2-(1H-imidazol-1-yl)ethyl]-2-isopropylbenzenesulfonamide]"
0.3 µM,4,1.1,"CC[C@H](C)C(CO)Nc1ccc(S(=O)(=O)c2ccc(C(C)C)c(S(=O)(=O)NCCn3ccnc3)c2)cc1 (stereo partly drawn) [Example 453, 5-[(4-{[(2S)-1-(hydroxymethyl)-2-methylbutyl]amino}phenyl)sulfonyl]-N-[2-(1H-imidazol-1-yl)ethyl]-2-isopropylbenzenesulfonamide]"
0.5 µM,3.2,1,"CC(C)c1ccc(S(=O)(=O)c2cccc(Cl)c2)cc1S(=O)(=O)NCCc1ccccn1 [Example 455, 5-[(3-chlorophenyl)sulfonyl]-2-isopropyl-N-(2-pyridin-2-ylethyl)benzenesulfonamide]"
0.8 µM,3.6,1,"COc1cccc(S(=O)(=O)c2ccc(C(C)C)c(S(=O)(=O)NCCc3ccccn3)c2)c1 [Example 456, 2-isopropyl-5-[(3-methoxyphenyl)sulfonyl]-N-(2-pyridin-2-ylethyl)benzenesulfonamide]"
1.1 µM,2.9,1,"COc1ccccc1S(=O)(=O)c1ccc(C(C)C)c(S(=O)(=O)NCCc2ccccn2)c1 [Example 457, 2-isopropyl-5-[(2-methoxyphenyl)sulfonyl]-N-(2-pyridin-2-ylethyl)benzenesulfonamide]"
0.7 µM,1.7,1,"CC(C)(C)c1ccc(S(=O)(=O)c2ccccc2)cc1S(=O)(=O)NCCc1ccccn1 [Example 461, 2-tert-butyl-5-(phenylsulfonyl)-N-(2-pyridin-2-ylethyl)benzenesulfonamide]"
2 µM,2.9,1,"COc1ccccc1C(=O)N1CCC(NS(=O)(=O)c2cc(S(=O)(=O)c3ccccc3)ccc2C)CC1 [Example 462, N-[1-(2-methoxybenzoyl)piperidin-4-yl]-2-methyl-5-(phenylsulfonyl)benzenesulfonamide]"
0.7 µM,2.9,1,"COc1cccc(C(=O)N2CCC(NS(=O)(=O)c3cc(S(=O)(=O)c4ccccc4)ccc3C)CC2)c1 [Example 463, N-[1-(3-methoxybenzoyl)piperidin-4-yl]-2-methyl-5-(phenylsulfonyl)benzenesulfonamide]"
